Tests used:
[1] = test system: SMC subtypes; test: SMC contraction study; assay type: cell-based, human; conditions: angiotensin II 0.5 μM, 10 min, all SMC subtypes, n=30
Description: SMCs were preloaded with the calcium-sensitive fluorophore, Fluo-4 AM (2.5 μM; Molecular Probes) at 37° C. for an hour. Contraction was induced by treating the cells with angiotensin II (0.5 μM, Sigma). Contraction pictures and intracellular calcium flux videos of SMCs were acquired by a time-lapse microscope live cell imaging microscope (Zeiss Axiovert 200M) during 10 minutes of angiotensin II treatment. Change of cell surface area was assessed by ImageJ software.

[2] = test system: NCSMCs derived from hESC (H9); conditions: NCSMCs at 1% oxygen, drug 48 hr (minocycline 5 μM, losartan 5 μM), then labeled Aβ for 1 hr
Description: NCSMCs and BVSMCs were routinely cultured at 21% oxygen and 1% oxygen to simulate normoxic and chronic hypoxic conditions, respectively. Twenty one percent O2 SMCs were seeded at 30,000 cells/well onto 96-well plate as positive controls. One percent O2 SMCs were seeded at the same density as negative controls and experimental samples for drug treatment on the same plate. The 96-well plate was incubated at 37° C. overnight at 21% O2. After cell attachment, 2 mg/ml of fluorescently labeled amyloid peptide (Aβ42-Hilyte Fluor 555 or Aβ40-Hilyte Fluor 488, Anaspec) was added to SMCs for a 1 hr uptake at 37° C. After Aβ uptake, cells were dissociated into single-cell suspension for high-throughput flow cytometry by LSRFortessa plate analyzer. Respective Z factors for NCSMC and BVSMC Aβ uptake assays were calculated based on their mean fluorescence brightness (normalized to no-uptake controls) and SDs of positive (21% O2) and negative (1% O2) controls. […] Mean fluorescence brightness signals (normalized to no-uptake control) indicated the degree of amyloid uptake.
NCSMC were treated with the following reference compounds for 48 hours at 37° C. prior to Aβ uptake. […]
The NCSMC and BVSMC cultures were scaled down to 96-well format. […] Cells were incubated with labeled Aβ40 and Aβ42 (2 mg/ml) for an hour and subsequently evaluated by high-throughput flow cytometry.

| Compound | Reduction of cell surface area in contracting SMCs [1] | Effect on Aβ uptake (Aβ40 and Aβ42) over the vehicle control [2] |
| --- | --- | --- |
| angiotensin II (DRVYIHPF; Angiotensin-2; UniProt P01019 25-32, looked up) [vasoconstrictor, an inducer of contraction (0.5 μM, Sigma)] | 18%-21% |  |
| CCCCc1nc(Cl)c(CO)n1Cc1ccc(-c2ccccc2-c2nn[nH]n2)cc1 [losartan] |  | may not have any apparent effect |

Source: patent US20150218523A1, “MANUFACTURE OF VASCULAR SMOOTH MUSCLE CELLS AND THE USE” (Agency for Science, Technology and Research, priority 2014, published 2015)
